Experimental findings from ChEMBL document CHEMBL1201862, “PubChem BioAssay data set” (2004) are described below.

Test [1] in a line: MITF Measured in Cell-Based System Using Plate Reader - 2084-01_Inhibitor_Dose_DryPowder_Activity_Set7. Format: functional.
For test [2], the target named is Procathepsin L (Homo sapiens, UniProt P07711).
Test [3] has as its target T1, Dual specificity protein phosphatase 6 (Rattus norvegicus, UniProt Q64346).
T1 sequence (Q64346 whole entry): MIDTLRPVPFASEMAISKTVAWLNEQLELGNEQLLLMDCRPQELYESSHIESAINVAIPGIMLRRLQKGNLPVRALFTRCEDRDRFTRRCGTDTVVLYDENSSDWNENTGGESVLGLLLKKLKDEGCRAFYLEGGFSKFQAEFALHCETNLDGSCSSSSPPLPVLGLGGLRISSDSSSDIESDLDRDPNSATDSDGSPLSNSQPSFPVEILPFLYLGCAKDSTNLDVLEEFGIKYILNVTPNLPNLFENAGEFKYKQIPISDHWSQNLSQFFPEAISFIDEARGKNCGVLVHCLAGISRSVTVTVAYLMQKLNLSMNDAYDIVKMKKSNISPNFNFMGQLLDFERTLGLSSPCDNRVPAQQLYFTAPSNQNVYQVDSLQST
The test is described as follows: MKP-3 phosphatase inhibitors, primary screen, biochemical, rat enzyme, in vitro (AID 425).

Test [4] concerns the target Aspartyl aminopeptidase (Plasmodium falciparum 3D7, UniProt Q8I2J3).
A short description of test [5]: growth suppression of PTEN-null colon cells, dose response, cell-based, HCT116 PTEN knockout (AID 1047).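 Further: HCT116 colon tumor cells with PTEN knocked out; cells exposed to compound for 60 hours before readout; potency for loss of cell viability measured by luminescence.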 Format: functional.
Test [6] can be described thus: THP-1 cell cytotoxicity, dose response, cytotoxicity control for Vif-APOBEC3G degradation inhibitor project, THP-1 cells (AID 1117359). Particulars: Human immunodeficiency virus 1, THP-1. Type of test: functional.
Test [7] is described as follows: cytotoxicity toward NIH3T3 fibroblasts, dose response, counter-screen, cell-based, ATP luminescence, mouse fibroblasts (AID 2010).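 Further: cells exposed to compound for about 90 hours before reading.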 Format: functional. (In general: Counterscreens check selectivity or assay interference.)
Test [8] relates to Streptococcus. The test is described as follows: Group A Streptococcus viability loss, dose response, counter-screen for streptokinase expression inhibitor project, luminescence, BacTiterGlo (AID 1915).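 Further: potency for reduction of bacterial viability or growth.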 Format: functional, organism-based.
Test [9] concerns the target T2, Orexin/Hypocretin receptor type 1 (Homo sapiens, UniProt O43613).
T2 sequence (O43613 whole entry): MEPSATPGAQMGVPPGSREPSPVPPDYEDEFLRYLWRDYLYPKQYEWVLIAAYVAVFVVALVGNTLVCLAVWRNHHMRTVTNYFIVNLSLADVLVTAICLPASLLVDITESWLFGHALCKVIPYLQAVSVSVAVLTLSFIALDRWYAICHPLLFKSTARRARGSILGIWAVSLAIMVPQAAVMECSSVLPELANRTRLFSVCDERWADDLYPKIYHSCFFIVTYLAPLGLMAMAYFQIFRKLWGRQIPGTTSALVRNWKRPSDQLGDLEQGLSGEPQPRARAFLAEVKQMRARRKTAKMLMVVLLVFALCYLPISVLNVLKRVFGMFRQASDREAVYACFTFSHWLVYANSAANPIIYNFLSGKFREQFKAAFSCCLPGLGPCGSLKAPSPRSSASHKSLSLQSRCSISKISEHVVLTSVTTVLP
The test is described as follows: Fluorescence-based cell-based high throughput dose response assay for antagonists of the orexin 1 receptor (OX1R; HCRTR1). [Related pubchem assays (depositor defined):AID434989, AID435008, AID463079, AID485270, AID492963, AID492964, AID492965, AID493232, AID504717, AID504718]. Type of test: functional.

The test system of test [10] is CHO-K1. The test can be described thus: Counterscreen for antagonists of the orexin 1 receptor (OX1R; HCRTR1): Homogeneous time resolved fluorescence (HTRF)-based cell-based dose response assay to identify antagonists of the parental CHO-K1 cell line. [Related pubchem assays (depositor defined):AID434989, AID435008, AID463079, AID485270, AID492963, AID492964, AID492965, AID493232, AID504699, AID504701]. Type of test: functional. Conditions: Cricetulus griseus.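 Further: potency for inhibition of ATP-stimulated IP1 production as antagonists.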

The target in test [11] is Interleukin-1 receptor-associated kinase 4 (Homo sapiens, UniProt Q9NWZ3). Format: functional.
Interleukin-1 receptor-associated kinase 4, sequence (Q9NWZ3 whole entry): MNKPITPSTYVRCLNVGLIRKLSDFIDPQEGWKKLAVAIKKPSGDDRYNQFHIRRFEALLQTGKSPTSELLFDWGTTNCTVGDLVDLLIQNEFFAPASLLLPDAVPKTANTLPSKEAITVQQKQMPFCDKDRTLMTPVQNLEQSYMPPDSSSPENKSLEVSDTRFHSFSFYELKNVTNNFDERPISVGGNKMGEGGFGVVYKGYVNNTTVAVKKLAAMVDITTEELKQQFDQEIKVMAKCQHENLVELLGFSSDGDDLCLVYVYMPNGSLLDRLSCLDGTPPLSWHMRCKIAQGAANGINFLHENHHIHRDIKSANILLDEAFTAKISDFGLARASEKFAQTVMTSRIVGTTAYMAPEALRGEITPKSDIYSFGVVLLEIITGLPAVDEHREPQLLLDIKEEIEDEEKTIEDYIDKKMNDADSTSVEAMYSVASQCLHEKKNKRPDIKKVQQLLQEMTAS
For test [12], the target named is Dual specificity mitogen-activated protein kinase kinase 1 (Homo sapiens, UniProt Q02750). The test can be described thus: Navigating the Kinome. Panel member name: MAP2K1. Format: functional.
Dual specificity mitogen-activated protein kinase kinase 1, sequence (Q02750 whole entry): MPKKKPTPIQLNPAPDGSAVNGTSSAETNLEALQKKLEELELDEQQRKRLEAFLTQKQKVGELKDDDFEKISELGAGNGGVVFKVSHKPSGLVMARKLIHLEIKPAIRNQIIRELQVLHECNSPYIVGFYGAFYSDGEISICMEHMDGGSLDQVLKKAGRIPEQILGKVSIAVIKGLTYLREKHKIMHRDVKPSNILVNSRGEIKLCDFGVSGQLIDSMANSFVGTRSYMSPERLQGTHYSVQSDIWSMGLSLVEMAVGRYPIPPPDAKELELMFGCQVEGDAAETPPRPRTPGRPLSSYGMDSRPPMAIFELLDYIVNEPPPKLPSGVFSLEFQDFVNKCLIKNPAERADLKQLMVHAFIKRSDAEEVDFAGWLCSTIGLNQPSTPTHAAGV
Test [13] has as its target Serine/threonine-protein kinase D2 (Homo sapiens, UniProt Q9BZL6). Format: functional.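 Further: measured against PRKD2 as one member of a kinome-wide kinase profiling panel.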
Test [14] deals with Tyrosine-protein kinase Fer (Homo sapiens, UniProt P16591). Type of test: functional.
For test [15], the target named is Calcium/calmodulin-dependent protein kinase type II subunit gamma (Homo sapiens, UniProt Q13555). Format: functional.
In test [16] the target is Dual specificity tyrosine-phosphorylation-regulated kinase 1A (Homo sapiens, UniProt Q13627). Format: functional.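 Further: measured against DYRK1A as one member of a broad kinome profiling panel.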
The target of test [17] is Insulin-like growth factor 1 receptor (Homo sapiens, UniProt P08069). The test is described as follows: Navigating the Kinome. Panel member name: IGF1R. Format: functional.
In test [18] the target is Serine/threonine-protein kinase MRCK alpha (Homo sapiens, UniProt Q5VT25). Type of test: functional.
Test [19] concerns the target Protein kinase C iota type (Homo sapiens, UniProt P41743). Format: functional.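 Further: measured within a kinome-wide kinase panel, PRKCI as panel member.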
In test [20] the target is RAC-alpha serine/threonine-protein kinase (Homo sapiens, UniProt P31749). Format: functional.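 Further: AKT1 affinity measured as one member of a kinome-wide kinase profiling panel.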
RAC-alpha serine/threonine-protein kinase, sequence (P31749 whole entry): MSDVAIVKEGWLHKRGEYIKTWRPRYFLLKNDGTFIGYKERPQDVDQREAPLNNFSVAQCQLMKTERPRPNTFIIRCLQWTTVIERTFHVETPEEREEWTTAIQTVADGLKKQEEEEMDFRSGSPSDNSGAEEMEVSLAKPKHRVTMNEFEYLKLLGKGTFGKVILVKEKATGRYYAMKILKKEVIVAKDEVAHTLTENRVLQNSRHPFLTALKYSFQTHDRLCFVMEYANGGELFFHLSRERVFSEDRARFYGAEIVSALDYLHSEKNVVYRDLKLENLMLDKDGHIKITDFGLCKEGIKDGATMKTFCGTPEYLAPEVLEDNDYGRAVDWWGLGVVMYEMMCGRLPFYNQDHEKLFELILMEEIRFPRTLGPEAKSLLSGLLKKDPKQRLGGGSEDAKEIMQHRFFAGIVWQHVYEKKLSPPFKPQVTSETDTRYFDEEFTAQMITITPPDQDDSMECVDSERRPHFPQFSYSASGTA
For test [21], the target named is Megakaryocyte-associated tyrosine-protein kinase (Homo sapiens, UniProt P42679). Format: functional.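 Further: affinity measured as one member of a kinase panel (Navigating the Kinome) against MATK.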
Megakaryocyte-associated tyrosine-protein kinase, sequence (P42679 whole entry): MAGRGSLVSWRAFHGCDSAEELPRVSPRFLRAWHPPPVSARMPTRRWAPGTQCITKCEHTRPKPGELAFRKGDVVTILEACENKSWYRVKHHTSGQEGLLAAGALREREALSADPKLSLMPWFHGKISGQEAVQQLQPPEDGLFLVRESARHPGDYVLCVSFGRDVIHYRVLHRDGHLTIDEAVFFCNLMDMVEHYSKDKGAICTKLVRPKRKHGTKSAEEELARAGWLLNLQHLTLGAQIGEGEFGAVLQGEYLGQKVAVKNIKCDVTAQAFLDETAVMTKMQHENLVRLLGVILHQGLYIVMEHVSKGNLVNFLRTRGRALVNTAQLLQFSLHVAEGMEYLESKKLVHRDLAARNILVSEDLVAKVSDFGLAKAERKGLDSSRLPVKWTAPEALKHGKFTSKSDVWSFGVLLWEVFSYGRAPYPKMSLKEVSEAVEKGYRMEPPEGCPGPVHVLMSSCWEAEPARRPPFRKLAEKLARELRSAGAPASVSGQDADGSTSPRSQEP
For test [22], the target named is Ribosomal protein S6 kinase beta-1 (Homo sapiens, UniProt P23443). Type of test: functional.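 Further: measured as one member of a kinome-wide profiling panel.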
The target of test [23] is ALK tyrosine kinase receptor (Homo sapiens, UniProt Q9UM73). Type of test: functional.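 Further: ALK tested as one member of a kinase panel screen.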
In test [24] the target is Serine/threonine-protein kinase PAK 4 (Homo sapiens, UniProt O96013). Type of test: functional.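 Further: value obtained within a kinome profiling panel in which PAK4 was one of the panel members.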
Test [25] deals with Mitogen-activated protein kinase 14 (Homo sapiens, UniProt Q16539). Format: functional.
Mitogen-activated protein kinase 14, sequence (Q16539 whole entry): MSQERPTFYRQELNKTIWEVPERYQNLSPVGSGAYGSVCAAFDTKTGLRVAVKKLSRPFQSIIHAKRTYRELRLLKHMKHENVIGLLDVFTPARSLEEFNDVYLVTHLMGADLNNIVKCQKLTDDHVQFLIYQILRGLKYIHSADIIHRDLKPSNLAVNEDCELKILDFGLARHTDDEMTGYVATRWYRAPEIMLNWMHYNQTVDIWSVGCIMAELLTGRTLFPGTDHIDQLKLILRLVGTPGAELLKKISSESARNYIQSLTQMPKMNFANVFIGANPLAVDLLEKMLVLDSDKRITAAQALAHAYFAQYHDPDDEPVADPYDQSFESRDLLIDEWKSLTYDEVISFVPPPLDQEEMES
For test [26], the target named is Tyrosine-protein kinase FRK (Homo sapiens, UniProt P42685). Type of test: functional.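 Further: FRK tested as one member of a kinome panel.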
Test [27] has as its target Protein kinase C zeta type (Homo sapiens, UniProt Q05513). Type of test: functional.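 Further: measured as one member of a broad kinase profiling panel.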
The target of test [28] is Aurora kinase A (Homo sapiens, UniProt O14965). Type of test: functional.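 Further: value from the Navigating the Kinome kinase panel profiling, panel entry STK6.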
Test [29] has as its target Mitogen-activated protein kinase 13 (Homo sapiens, UniProt O15264). Type of test: functional.
The target of test [30] is Tyrosine-protein kinase JAK3 (Homo sapiens, UniProt P52333). Format: functional.
The target in test [31] is Fibroblast growth factor receptor 1 (Homo sapiens, UniProt P11362). Format: functional.
Fibroblast growth factor receptor 1, sequence (P11362 whole entry): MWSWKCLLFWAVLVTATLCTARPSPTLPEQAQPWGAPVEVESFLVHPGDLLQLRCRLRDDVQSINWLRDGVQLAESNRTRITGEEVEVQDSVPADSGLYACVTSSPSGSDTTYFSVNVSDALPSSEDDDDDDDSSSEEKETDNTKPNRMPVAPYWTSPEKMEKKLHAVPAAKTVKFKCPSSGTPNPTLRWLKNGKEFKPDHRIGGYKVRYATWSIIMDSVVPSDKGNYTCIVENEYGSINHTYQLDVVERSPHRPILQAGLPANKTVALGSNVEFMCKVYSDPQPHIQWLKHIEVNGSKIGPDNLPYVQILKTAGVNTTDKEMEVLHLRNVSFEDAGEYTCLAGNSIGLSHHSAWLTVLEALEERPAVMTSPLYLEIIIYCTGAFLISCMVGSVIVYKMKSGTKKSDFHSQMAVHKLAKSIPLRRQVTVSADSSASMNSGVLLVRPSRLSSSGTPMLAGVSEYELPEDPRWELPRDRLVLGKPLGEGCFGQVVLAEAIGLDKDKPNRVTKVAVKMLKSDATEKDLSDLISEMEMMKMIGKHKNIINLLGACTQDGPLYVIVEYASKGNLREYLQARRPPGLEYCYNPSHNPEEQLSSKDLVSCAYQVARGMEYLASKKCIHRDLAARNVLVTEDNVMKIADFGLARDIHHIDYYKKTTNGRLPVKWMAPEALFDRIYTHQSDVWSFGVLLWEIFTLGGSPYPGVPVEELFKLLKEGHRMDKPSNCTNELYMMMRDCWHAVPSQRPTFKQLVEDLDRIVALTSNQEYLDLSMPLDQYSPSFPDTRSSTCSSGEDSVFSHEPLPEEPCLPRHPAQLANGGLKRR

Molecules are shown by their SMILES. The source made the active and inactive calls.

Protein kinase C zeta type, sequence (Q05513 whole entry): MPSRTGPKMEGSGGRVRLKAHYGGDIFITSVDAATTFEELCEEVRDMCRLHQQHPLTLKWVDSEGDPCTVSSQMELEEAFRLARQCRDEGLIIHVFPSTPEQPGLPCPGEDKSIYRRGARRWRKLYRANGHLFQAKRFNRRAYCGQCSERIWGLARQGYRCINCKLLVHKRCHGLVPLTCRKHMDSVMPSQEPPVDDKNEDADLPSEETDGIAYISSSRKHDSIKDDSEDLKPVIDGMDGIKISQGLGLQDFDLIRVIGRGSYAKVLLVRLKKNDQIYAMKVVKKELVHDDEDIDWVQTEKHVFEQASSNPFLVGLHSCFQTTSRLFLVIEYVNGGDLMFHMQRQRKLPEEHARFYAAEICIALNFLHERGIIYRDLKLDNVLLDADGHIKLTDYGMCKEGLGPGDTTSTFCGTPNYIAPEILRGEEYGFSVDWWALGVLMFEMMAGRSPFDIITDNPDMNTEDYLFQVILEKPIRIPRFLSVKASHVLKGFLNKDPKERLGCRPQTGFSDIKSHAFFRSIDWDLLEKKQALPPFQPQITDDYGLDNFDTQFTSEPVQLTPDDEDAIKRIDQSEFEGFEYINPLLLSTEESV
Aspartyl aminopeptidase, sequence (Q8I2J3 whole entry): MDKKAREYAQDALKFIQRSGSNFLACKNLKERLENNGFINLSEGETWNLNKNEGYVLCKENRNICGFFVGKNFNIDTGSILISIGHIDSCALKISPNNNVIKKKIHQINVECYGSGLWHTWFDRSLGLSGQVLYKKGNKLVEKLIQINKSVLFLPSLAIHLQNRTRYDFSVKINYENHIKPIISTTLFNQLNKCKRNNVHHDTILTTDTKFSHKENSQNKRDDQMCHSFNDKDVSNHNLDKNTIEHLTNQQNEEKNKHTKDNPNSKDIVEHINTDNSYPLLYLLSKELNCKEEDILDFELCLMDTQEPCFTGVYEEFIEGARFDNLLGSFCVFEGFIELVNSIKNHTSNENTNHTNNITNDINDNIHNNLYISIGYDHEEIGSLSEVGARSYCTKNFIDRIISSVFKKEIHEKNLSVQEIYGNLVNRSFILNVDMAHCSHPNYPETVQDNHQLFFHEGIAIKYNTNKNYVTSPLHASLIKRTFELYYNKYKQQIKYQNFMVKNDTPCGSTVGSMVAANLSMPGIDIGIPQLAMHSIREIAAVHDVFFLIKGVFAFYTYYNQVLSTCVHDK
Mitogen-activated protein kinase 13, sequence (O15264 whole entry): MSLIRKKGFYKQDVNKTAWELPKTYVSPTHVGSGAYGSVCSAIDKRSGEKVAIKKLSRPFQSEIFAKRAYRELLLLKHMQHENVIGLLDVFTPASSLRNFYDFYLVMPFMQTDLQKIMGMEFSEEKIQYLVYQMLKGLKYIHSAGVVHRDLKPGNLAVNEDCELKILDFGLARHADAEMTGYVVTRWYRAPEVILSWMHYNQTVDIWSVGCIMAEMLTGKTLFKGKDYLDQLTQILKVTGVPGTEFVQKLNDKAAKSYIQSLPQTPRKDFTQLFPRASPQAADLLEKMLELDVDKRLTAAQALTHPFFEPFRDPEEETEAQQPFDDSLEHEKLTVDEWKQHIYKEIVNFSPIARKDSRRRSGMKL
Procathepsin L, sequence (P07711 whole entry): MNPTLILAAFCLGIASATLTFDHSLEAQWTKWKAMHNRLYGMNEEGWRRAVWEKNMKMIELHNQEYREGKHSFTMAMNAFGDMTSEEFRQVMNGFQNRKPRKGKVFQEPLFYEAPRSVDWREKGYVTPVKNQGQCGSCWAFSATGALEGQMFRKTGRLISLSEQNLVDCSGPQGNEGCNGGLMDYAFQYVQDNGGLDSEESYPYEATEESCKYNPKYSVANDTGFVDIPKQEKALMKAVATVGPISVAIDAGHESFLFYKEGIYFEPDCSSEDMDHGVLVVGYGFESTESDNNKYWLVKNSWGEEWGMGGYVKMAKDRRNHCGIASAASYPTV

The term AC50 denotes the concentration at which the activity in the assay is half-maximal. Regarding `C=CCNC1=C(Cl)C(=O)c2ccccc2C1=O`, the concentration at half-maximal activity (AC50) in test [1] is 735 nM (active).

As usually defined, the IC50 is the concentration at which inhibition is half-maximal. Regarding `CS(=O)(=O)c1ccc2c(c1)SC1=NC(=O)/C(=C/c3ccc(O)c(O)c3)C(=N)N12`, the half-inhibitory concentration (IC50) in test [2] is > 59.6 µM (not active); in [3], 113 µM (not active); in test [4], 2.16 µM (active).

The term EC50 denotes the concentration at which the effect is half-maximal. By CC50 is commonly meant the concentration giving 50% cytotoxicity. With `CCOC(=O)C(C(=O)OCC)c1cc(Br)c2noc3c2c1C(=O)c1ccccc1-3`, the values for the EC50 in test [5], in test [7] and in test [8] were 10.2 µM (active), 3.06 µM (active) and > 150 µM (not active), respectively. In addition, the 50% cytotoxic concentration (CC50) in [6] was 19.2 µM (active).

With `CN(C)c1ccc(-c2nnc(-c3cccs3)o2)cc1`, the IC50 was > 49.7 µM (inactive) in [9] and > 66.2 µM (inactive) in test [10].

One may read the Ki as the equilibrium dissociation constant of an inhibitor or competing ligand from its target. Consider `COc1ccc(C(=O)Nc2n[nH]c3ccc(-c4cn(Cc5ccccc5)nn4)cc23)cc1OC`, for which the inhibition constant (Ki) in test [11] was 2.51 µM (active); in test [12], 1.26 µM (active); in [13] it was 2 µM (active); in test [14], 251 nM (active); in test [15], 316 nM (active); in [16], 100 nM (active). For the same compound, the Ki in [17] was > 2 µM (inactive); in test [18] it was 6.31 µM (active); in test [19] it was 3.98 µM (active); in [20], 6.31 µM (active); in [21], > 2 µM (inactive); in test [22], 100 nM (active). The Ki in test [23] was > 6.31 µM (inactive); in test [24], 501 nM (active); in test [25], > 3.98 µM (inactive); in [26], 79.4 nM (active); in test [27], > 7.94 µM (inactive); in test [28] it was 398 nM (active). The Ki in test [29] is 501 nM (active); in test [30] it was 1 µM (active); in [31] it was 501 nM (active).
